From the NIST ThermoML archive (doi:10.1021/je060271a)
Numbers after ± are expanded uncertainties.

Details: 283.15 K, Liquid, Vibrating tube method

CCCCC(=O)OCC(COC(=O)CCCC)(COC(=O)CCCC)COC(=O)CCCC [pentaerythritol tetrapentanoate]
mass density (27222 kPa): 1042.2 ± 1.3 kg/m3
mass density (27265 kPa): 1042.3 ± 1.3 kg/m3
mass density (27300 kPa): 1042.3 ± 1.3 kg/m3
mass density (27336 kPa): 1042.4 ± 1.3 kg/m3
mass density (27379 kPa): 1042.4 ± 1.3 kg/m3
mass density (27415 kPa): 1042.3 ± 1.3 kg/m3
mass density (27450 kPa): 1042.4 ± 1.3 kg/m3
mass density (27493 kPa): 1042.5 ± 1.3 kg/m3
mass density (27528 kPa): 1042.4 ± 1.3 kg/m3
mass density (27564 kPa): 1042.3 ± 1.3 kg/m3
mass density (27608 kPa): 1042.5 ± 1.3 kg/m3
mass density (27645 kPa): 1042.6 ± 1.3 kg/m3
mass density (27681 kPa): 1042.5 ± 1.3 kg/m3
mass density (27718 kPa): 1042.5 ± 1.3 kg/m3
mass density (27762 kPa): 1042.5 ± 1.3 kg/m3
mass density (27798 kPa): 1042.5 ± 1.3 kg/m3
mass density (27842 kPa): 1042.6 ± 1.3 kg/m3
mass density (27879 kPa): 1042.6 ± 1.3 kg/m3
mass density (27916 kPa): 1042.6 ± 1.3 kg/m3
mass density (27961 kPa): 1042.6 ± 1.3 kg/m3
mass density (27998 kPa): 1042.8 ± 1.3 kg/m3
mass density (28035 kPa): 1042.7 ± 1.3 kg/m3
mass density (28074 kPa): 1042.8 ± 1.3 kg/m3
mass density (28121 kPa): 1042.7 ± 1.3 kg/m3
mass density (28158 kPa): 1042.7 ± 1.3 kg/m3
mass density (28196 kPa): 1042.8 ± 1.3 kg/m3
mass density (28241 kPa): 1042.8 ± 1.3 kg/m3
mass density (28279 kPa): 1042.8 ± 1.3 kg/m3
mass density (28316 kPa): 1042.8 ± 1.3 kg/m3
mass density (28354 kPa): 1042.8 ± 1.3 kg/m3
mass density (28400 kPa): 1042.8 ± 1.3 kg/m3
mass density (28438 kPa): 1043 ± 1.3 kg/m3
mass density (28477 kPa): 1043 ± 1.3 kg/m3
mass density (28524 kPa): 1043 ± 1.3 kg/m3
mass density (28563 kPa): 1043 ± 1.3 kg/m3
mass density (28610 kPa): 1043 ± 1.3 kg/m3
mass density (28652 kPa): 1043 ± 1.3 kg/m3
mass density (28691 kPa): 1043.1 ± 1.3 kg/m3
mass density (28730 kPa): 1043.1 ± 1.3 kg/m3
mass density (28770 kPa): 1043 ± 1.3 kg/m3
mass density (28816 kPa): 1043.1 ± 1.3 kg/m3
mass density (28856 kPa): 1043.1 ± 1.3 kg/m3
mass density (28896 kPa): 1043.1 ± 1.3 kg/m3
mass density (28944 kPa): 1043.2 ± 1.3 kg/m3
mass density (28984 kPa): 1043.2 ± 1.3 kg/m3
mass density (29024 kPa): 1043.1 ± 1.3 kg/m3
mass density (29072 kPa): 1043.3 ± 1.3 kg/m3
mass density (29112 kPa): 1043.2 ± 1.3 kg/m3
mass density (29153 kPa): 1043.3 ± 1.3 kg/m3
mass density (29194 kPa): 1043.3 ± 1.3 kg/m3
mass density (29244 kPa): 1043.3 ± 1.3 kg/m3
mass density (29285 kPa): 1043.3 ± 1.3 kg/m3
mass density (29333 kPa): 1043.4 ± 1.3 kg/m3
mass density (29375 kPa): 1043.4 ± 1.3 kg/m3
mass density (29416 kPa): 1043.4 ± 1.3 kg/m3
mass density (29458 kPa): 1043.4 ± 1.3 kg/m3
mass density (29508 kPa): 1043.4 ± 1.3 kg/m3
mass density (29549 kPa): 1043.5 ± 1.3 kg/m3
mass density (29592 kPa): 1043.4 ± 1.3 kg/m3
mass density (29642 kPa): 1043.4 ± 1.3 kg/m3
mass density (29685 kPa): 1043.6 ± 1.3 kg/m3
mass density (29737 kPa): 1043.6 ± 1.3 kg/m3
mass density (29782 kPa): 1043.6 ± 1.3 kg/m3
mass density (29825 kPa): 1043.6 ± 1.3 kg/m3
mass density (29869 kPa): 1043.7 ± 1.3 kg/m3
mass density (29926 kPa): 1043.7 ± 1.3 kg/m3
mass density (29972 kPa): 1043.7 ± 1.3 kg/m3
mass density (30019 kPa): 1043.7 ± 1.3 kg/m3
mass density (30074 kPa): 1043.7 ± 1.3 kg/m3
mass density (30106 kPa): 1043.7 ± 1.3 kg/m3
mass density (30144 kPa): 1043.9 ± 1.3 kg/m3
mass density (30175 kPa): 1043.8 ± 1.3 kg/m3
mass density (30205 kPa): 1043.8 ± 1.3 kg/m3
mass density (30243 kPa): 1043.8 ± 1.3 kg/m3
mass density (30275 kPa): 1043.9 ± 1.3 kg/m3
mass density (30307 kPa): 1043.9 ± 1.3 kg/m3
mass density (30340 kPa): 1044 ± 1.3 kg/m3
mass density (30379 kPa): 1043.8 ± 1.3 kg/m3
mass density (30413 kPa): 1043.9 ± 1.3 kg/m3
mass density (30453 kPa): 1043.9 ± 1.3 kg/m3
mass density (30485 kPa): 1044 ± 1.3 kg/m3
mass density (30517 kPa): 1044 ± 1.3 kg/m3
mass density (30549 kPa): 1044 ± 1.3 kg/m3
mass density (30588 kPa): 1043.9 ± 1.3 kg/m3
mass density (30621 kPa): 1044 ± 1.3 kg/m3
mass density (30653 kPa): 1044.2 ± 1.3 kg/m3
mass density (30692 kPa): 1044 ± 1.3 kg/m3
mass density (30724 kPa): 1044.1 ± 1.3 kg/m3
mass density (30757 kPa): 1044.1 ± 1.3 kg/m3
mass density (30795 kPa): 1044.1 ± 1.3 kg/m3
mass density (30828 kPa): 1044.1 ± 1.3 kg/m3
mass density (30860 kPa): 1044.2 ± 1.3 kg/m3
mass density (30899 kPa): 1044.1 ± 1.3 kg/m3
mass density (30932 kPa): 1044.2 ± 1.3 kg/m3
mass density (30965 kPa): 1044.2 ± 1.3 kg/m3
mass density (31004 kPa): 1044.3 ± 1.3 kg/m3
mass density (31038 kPa): 1044.2 ± 1.3 kg/m3
mass density (31071 kPa): 1044.3 ± 1.3 kg/m3
mass density (31110 kPa): 1044.2 ± 1.3 kg/m3
mass density (31144 kPa): 1044.3 ± 1.3 kg/m3
mass density (31178 kPa): 1044.4 ± 1.3 kg/m3
mass density (31218 kPa): 1044.3 ± 1.3 kg/m3
mass density (31252 kPa): 1044.4 ± 1.3 kg/m3
mass density (31285 kPa): 1044.5 ± 1.3 kg/m3
mass density (31325 kPa): 1044.3 ± 1.3 kg/m3
mass density (31359 kPa): 1044.5 ± 1.3 kg/m3
mass density (31393 kPa): 1044.4 ± 1.3 kg/m3
mass density (31427 kPa): 1044.5 ± 1.3 kg/m3
mass density (31468 kPa): 1044.5 ± 1.3 kg/m3
mass density (31503 kPa): 1044.5 ± 1.3 kg/m3
mass density (31544 kPa): 1044.5 ± 1.3 kg/m3
mass density (31578 kPa): 1044.5 ± 1.3 kg/m3
mass density (31613 kPa): 1044.6 ± 1.3 kg/m3
mass density (31650 kPa): 1044.6 ± 1.3 kg/m3
mass density (31685 kPa): 1044.5 ± 1.3 kg/m3
mass density (31726 kPa): 1044.7 ± 1.3 kg/m3
mass density (31762 kPa): 1044.6 ± 1.3 kg/m3
mass density (31797 kPa): 1044.7 ± 1.3 kg/m3
mass density (31839 kPa): 1044.7 ± 1.3 kg/m3
mass density (31874 kPa): 1044.7 ± 1.3 kg/m3
mass density (31909 kPa): 1044.7 ± 1.3 kg/m3
mass density (31951 kPa): 1044.8 ± 1.3 kg/m3
mass density (31987 kPa): 1044.8 ± 1.3 kg/m3
mass density (32023 kPa): 1044.7 ± 1.3 kg/m3
mass density (32066 kPa): 1044.8 ± 1.3 kg/m3
mass density (32103 kPa): 1044.7 ± 1.3 kg/m3
mass density (32141 kPa): 1044.8 ± 1.3 kg/m3
mass density (32177 kPa): 1044.8 ± 1.3 kg/m3
mass density (32214 kPa): 1044.9 ± 1.3 kg/m3
mass density (32257 kPa): 1044.9 ± 1.3 kg/m3
mass density (32294 kPa): 1044.9 ± 1.3 kg/m3
mass density (32337 kPa): 1044.8 ± 1.3 kg/m3
mass density (32373 kPa): 1045.1 ± 1.3 kg/m3
mass density (32410 kPa): 1044.9 ± 1.3 kg/m3
mass density (32447 kPa): 1044.9 ± 1.3 kg/m3
mass density (32491 kPa): 1045 ± 1.3 kg/m3
mass density (32528 kPa): 1045 ± 1.3 kg/m3
mass density (32572 kPa): 1045 ± 1.3 kg/m3
mass density (32609 kPa): 1045.1 ± 1.3 kg/m3
mass density (32647 kPa): 1045.2 ± 1.3 kg/m3
mass density (32691 kPa): 1045.2 ± 1.3 kg/m3
mass density (32728 kPa): 1045.1 ± 1.3 kg/m3
mass density (32766 kPa): 1045.2 ± 1.3 kg/m3
mass density (32804 kPa): 1045.1 ± 1.3 kg/m3
mass density (32850 kPa): 1045.1 ± 1.3 kg/m3
mass density (32887 kPa): 1045.2 ± 1.3 kg/m3
mass density (32925 kPa): 1045.2 ± 1.3 kg/m3
mass density (32971 kPa): 1045.2 ± 1.3 kg/m3
mass density (33008 kPa): 1045.2 ± 1.3 kg/m3
mass density (33055 kPa): 1045.3 ± 1.3 kg/m3
mass density (33093 kPa): 1045.2 ± 1.3 kg/m3
mass density (33133 kPa): 1045.3 ± 1.3 kg/m3
mass density (33172 kPa): 1045.3 ± 1.3 kg/m3
mass density (33218 kPa): 1045.3 ± 1.3 kg/m3
mass density (33258 kPa): 1045.4 ± 1.3 kg/m3
mass density (33297 kPa): 1045.4 ± 1.3 kg/m3
mass density (33344 kPa): 1045.4 ± 1.3 kg/m3
mass density (33383 kPa): 1045.5 ± 1.3 kg/m3
mass density (33430 kPa): 1045.5 ± 1.3 kg/m3
mass density (33471 kPa): 1045.4 ± 1.3 kg/m3
